Values joined by “and” are separate entries in the source; they are usually repeats but may differ in a detail not shown here. Identical values can stand only once. Toxic doses and inconclusive results are not listed.
Tested on: P388 leukemia ip, CD2F1 mice, survival T/C
Test: NCI In Vivo Anticancer Drug Screen. Data for tumor model P388 Leukemia (intraperitoneal) in CD2F1 (CDF1) mice
Conditions: endpoint: median survival time, higher = longer survival
In short: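 Mice carrying the transplanted tumor received test compound or vehicle. Survival was recorded in each group, and the value is the treated-group measurement divided by that of the vehicle-treated control group.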

[1] = dose: 50.0 mg/kg/injection, schedule: Q01DX009 (ip), vehicle: Klucel (hydroxypropylcellulose) (HPC)
[2] = dose: 100.0 mg/kg/injection, schedule: Q01DX009 (ip), vehicle: Klucel (hydroxypropylcellulose) (HPC)
[3] = dose: 60.0 mg/kg/injection, schedule: Q01DX005 (ip), vehicle: Klucel + Tween-80
[4] = dose: 120.0 mg/kg/injection, schedule: Q01DX005 (ip), vehicle: Klucel + Tween-80
[5] = dose: 240.0 mg/kg/injection, schedule: Q01DX005 (ip), vehicle: Klucel + Tween-80
[6] = dose: 50.0 mg/kg/injection, schedule: Q01DX009 (ip), vehicle: saline with Tween-80
[7] = dose: 100.0 mg/kg/injection, schedule: Q01DX009 (ip), vehicle: saline with Tween-80
[8] = dose: 200.0 mg/kg/injection, schedule: Q01DX009 (ip), vehicle: saline with Tween-80
[9] = dose: 50.0 mg/kg/injection, schedule: Q01DX009 (ip), vehicle: saline
[10] = dose: 100.0 mg/kg/injection, schedule: Q01DX009 (ip), vehicle: saline
[11] = dose: 200.0 mg/kg/injection, schedule: Q01DX009 (ip), vehicle: saline
[12] = dose: 25.0 mg/kg/injection, schedule: Q01DX009 (ip), vehicle: saline with Tween-80
[13] = dose: 100.0 mg/kg/injection, schedule: Q04DX002 (ip), vehicle: saline with Tween-80
[14] = dose: 200.0 mg/kg/injection, schedule: Q04DX002 (ip), vehicle: saline with Tween-80
[15] = dose: 400.0 mg/kg/injection, schedule: Q04DX002 (ip), vehicle: saline with Tween-80
[16] = dose: 50.0 mg/kg/injection, schedule: Q01DX005 (ip), vehicle: saline with Tween-80
[17] = dose: 100.0 mg/kg/injection, schedule: Q01DX005 (ip), vehicle: saline with Tween-80

Structure (SMILES): FC(F)(F)C1=C(C(F)(F)F)SP23(OCCC(CO2)O3)S1 (configuration not stated)
- T/C (dose: 12.5 mg/kg/injection, schedule: Q01DX009 (ip), vehicle: Klucel (hydroxypropylcellulose) (HPC)): 107 % of control and 108 % of control
- T/C (dose: 25.0 mg/kg/injection, schedule: Q01DX009 (ip), vehicle: Klucel (hydroxypropylcellulose) (HPC)): 106 % of control and 114 % of control
- T/C [1]: 109 % of control and 114 % of control
- T/C [2]: 107 % of control and 116 % of control

Structure (SMILES): O=S1(=O)N=C([O-])c2ccc(C[N+]3(CCCl)CCN(CCCl)CC3)cc21
- T/C (dose: 12.5 mg/kg/injection, schedule: Q01DX009 (ip), vehicle: DMSO): 87 % of control
- T/C (dose: 25.0 mg/kg/injection, schedule: Q01DX009 (ip), vehicle: DMSO): 105 % of control
- T/C (dose: 50.0 mg/kg/injection, schedule: Q01DX009 (ip), vehicle: DMSO): 87 % of control
- T/C (dose: 100.0 mg/kg/injection, schedule: Q01DX009 (ip), vehicle: DMSO): 115 % of control

Structure (SMILES): CCOc1c(N=Nc2cccc(Cl)c2)c(C)nn1C(=S)SC
- T/C [3]: 94 % of control
- T/C [4]: 98 % of control
- T/C [5]: 99 % of control

Structure (SMILES): COc1cc2c(cc1O)C(CSC)Cc1cc(OC)c(OC)cc1N(C)CC2 (configuration not stated)
- T/C [6]: 104 % of control
- T/C [7]: 101 % of control
- T/C [8]: 109 % of control

Structure (SMILES): CCOc1ccc(NC(=O)C(C(C)N2CCCCC2)N2CCCCC2)cc1 (configuration not stated)
- T/C (dose: 12.5 mg/kg/injection, schedule: Q01DX009 (ip), vehicle: saline): 93 % of control
- T/C (dose: 25.0 mg/kg/injection, schedule: Q01DX009 (ip), vehicle: saline): 87 % of control

Structure (SMILES): CCc1c2oc(C(=O)c3ccc(Cl)cc3)cc2n2ccccc12
- T/C [3]: 89 % of control
- T/C [4]: 86 % of control

Structure (SMILES): CCOc1ccccc1/C=C1\CCc2ccccc2C1=O
- T/C [1]: 100 % of control
- T/C [2]: 100 % of control
- T/C (dose: 200.0 mg/kg/injection, schedule: Q01DX009 (ip), vehicle: Klucel (hydroxypropylcellulose) (HPC)): 102 % of control

Structure (SMILES): CC[C@@H](O)[C@H](CC[Se]c1ccccc1)C(=O)[C@H](O)C1CCCCC1
- T/C (dose: 60.0 mg/kg/injection, schedule: Q01DX005 (ip), vehicle: saline with Tween-80): 107 % of control
- T/C (dose: 120.0 mg/kg/injection, schedule: Q01DX005 (ip), vehicle: saline with Tween-80): 105 % of control
- T/C (dose: 240.0 mg/kg/injection, schedule: Q01DX005 (ip), vehicle: saline with Tween-80): 108 % of control

Structure (SMILES): [CH3][Sb]([CH3])([CH3])([CH3])[I]
- T/C [9]: 98 % of control
- T/C [10]: 100 % of control
- T/C [11]: 95 % of control

Structure (SMILES): ClCC1(CCl)COC(c2ccccc2)OC1
- T/C [7]: 100 % of control
- T/C [8]: 100 % of control
- T/C (dose: 400.0 mg/kg/injection, schedule: Q01DX009 (ip), vehicle: saline with Tween-80): 95 % of control

Structure (SMILES): CC(C)(C)C1=CS(=O)(=O)C(C(C)(C)C)C(O)O1 (configuration not stated)
- T/C [12]: 100 % of control

Structure (SMILES): COc1cc2c(NCCCCCO)ncnc2c(OC)c1OC
- T/C [9]: 105 % of control
- T/C [10]: 105 % of control
- T/C [11]: 102 % of control

Structure (SMILES): COc1cc(NC(=O)CN(CCCl)CCCl)cc(OC)c1OC
- T/C [12]: 157 % of control
- T/C [6]: 213 % of control
- T/C (dose: 100.0 mg/kg/injection, schedule: Q01DX009 (ip), vehicle: saline sonified): 163 % of control
- T/C [7]: 120 % of control
- T/C (dose: 132.0 mg/kg/injection, schedule: Q04DX003 (ip), vehicle: saline sonified): 100 % of control
- T/C (dose: 200.0 mg/kg/injection, schedule: Q01DX009 (ip), vehicle: saline sonified): 159 % of control
- T/C (dose: 200.0 mg/kg/injection, schedule: Q04DX003 (ip), vehicle: saline sonified): 110 % of control

Structure (SMILES): O=C(OCC1C=C(OC(=O)c2ccccc2)C(=O)C(OC(=O)c2ccccc2)O1)c1ccccc1 (configuration not stated)
- T/C (dose: 6.25 mg/kg/injection, schedule: Q01DX009 (ip), vehicle: saline with Tween-80): 98 % of control
- T/C (dose: 12.5 mg/kg/injection, schedule: Q01DX009 (ip), vehicle: saline with Tween-80): 94 % of control
- T/C [12]: 86 % of control
- T/C [6]: 89 % of control
- T/C [7]: 93 % of control
- T/C [8]: 102 % of control

Structure (SMILES): CCOC(=O)/N=[N+](\[O-])c1ccc(Br)cc1
- T/C (dose: 12.5 mg/kg/injection, schedule: Q01DX001 (ip), vehicle: Klucel (hydroxypropylcellulose) (HPC)): 109 % of control
- T/C (dose: 25.0 mg/kg/injection, schedule: Q01DX001 (ip), vehicle: Klucel (hydroxypropylcellulose) (HPC)): 115 % of control
- T/C (dose: 50.0 mg/kg/injection, schedule: Q01DX001 (ip), vehicle: Klucel (hydroxypropylcellulose) (HPC)): 103 % of control

Structure (SMILES): CC1=C(C(=O)Nc2ccccc2)C(c2ccccc2F)C(C(=O)Nc2ccccc2)=C(C)N1
- T/C [13]: 100 % of control
- T/C [14]: 100 % of control
- T/C [15]: 91 % of control

Structure (SMILES): c1cc2c(cc1CC1CCNC1)OCO2 (configuration not stated)
- T/C (dose: 5.0 mg/kg/injection, schedule: Q01DX009 (ip), vehicle: saline): 95 % of control
- T/C (dose: 10.0 mg/kg/injection, schedule: Q01DX009 (ip), vehicle: saline): 100 % of control
- T/C (dose: 20.0 mg/kg/injection, schedule: Q01DX009 (ip), vehicle: saline): 95 % of control

Structure (SMILES): N#Cc1c(C(F)(F)F)cc(-c2cccs2)nc1C(C(=O)Nc1cc(Cl)c(Cl)cc1Cl)c1ccccc1 (configuration not stated)
- T/C (dose: 50.0 mg/kg/injection, schedule: Q01DX005 (ip), vehicle: Klucel (hydroxypropylcellulose) (HPC)): 87 % of control
- T/C (dose: 100.0 mg/kg/injection, schedule: Q01DX005 (ip), vehicle: Klucel (hydroxypropylcellulose) (HPC)): 92 % of control
- T/C (dose: 200.0 mg/kg/injection, schedule: Q01DX005 (ip), vehicle: Klucel (hydroxypropylcellulose) (HPC)): 91 % of control

Structure (SMILES): CC(=O)N1NC(=O)c2c(c3ccccc3n2C)C1c1ccc(C)cc1 (configuration not stated)
- T/C (dose: 100.0 mg/kg/injection, schedule: Q01DX001 (ip), vehicle: Klucel (hydroxypropylcellulose) (HPC)): 100 % of control
- T/C (dose: 200.0 mg/kg/injection, schedule: Q01DX001 (ip), vehicle: Klucel (hydroxypropylcellulose) (HPC)): 110 % of control
- T/C (dose: 400.0 mg/kg/injection, schedule: Q01DX001 (ip), vehicle: Klucel (hydroxypropylcellulose) (HPC)): 110 % of control

Structure (SMILES): CNC(=O)Oc1ccccc1OC(C)C
- T/C (dose: 7.5 mg/kg/injection, schedule: Q01DX005 (ip), vehicle: Klucel (hydroxypropylcellulose) (HPC)): 97 % of control
- T/C (dose: 15.0 mg/kg/injection, schedule: Q01DX005 (ip), vehicle: Klucel (hydroxypropylcellulose) (HPC)): 96 % of control

Structure (SMILES): Cc1ccc(CC(=O)O)cc1C
- T/C (dose: 100.0 mg/kg/injection, schedule: Q04DX003 (ip), vehicle: saline with Tween-80): 190 % of control
- T/C (dose: 200.0 mg/kg/injection, schedule: Q04DX003 (ip), vehicle: saline with Tween-80): 113 % of control
- T/C (dose: 400.0 mg/kg/injection, schedule: Q04DX003 (ip), vehicle: saline with Tween-80): 113 % of control

Structure (SMILES): CC(C)(C)NC1=C([N+](=O)[O-])CCCC1
- T/C [16]: 93 % of control
- T/C [17]: 93 % of control

Structure (SMILES): Clc1ccc(C2=Nc3ccccc3SC(c3ccco3)C2)cc1Cl (configuration not stated)
- T/C [13]: 100 % of control
- T/C [14]: 96 % of control
- T/C [15]: 102 % of control

Structure (SMILES): CCCCCNc1ncnc2c1ncn2C1OC(CO)C(O)C1O (configuration not stated)
- T/C (dose: 12.5 mg/kg/injection, schedule: Q04DX003 (ip), vehicle: saline): 97 % of control
- T/C (dose: 25.0 mg/kg/injection, schedule: Q04DX003 (ip), vehicle: saline): 108 % of control
- T/C (dose: 50.0 mg/kg/injection, schedule: Q04DX003 (ip), vehicle: saline): 102 % of control
- T/C (dose: 100.0 mg/kg/injection, schedule: Q04DX003 (ip), vehicle: saline): 104 % of control

Structure (SMILES): NC(c1cccc([N+](=O)[O-])c1)S(=O)(=O)O (configuration not stated)
- T/C (dose: 100.0 mg/kg/injection, schedule: Q04DX002 (ip), vehicle: saline): 99 % of control
- T/C (dose: 200.0 mg/kg/injection, schedule: Q04DX002 (ip), vehicle: saline): 105 % of control
- T/C (dose: 400.0 mg/kg/injection, schedule: Q04DX002 (ip), vehicle: saline): 105 % of control

Structure (SMILES): CNC(=O)SCCC(=O)OC
- T/C [16]: 98 % of control
- T/C [17]: 100 % of control
- T/C (dose: 200.0 mg/kg/injection, schedule: Q01DX005 (ip), vehicle: saline with Tween-80): 100 % of control

Structure (SMILES): CC(C)(C)C(=O)CC(=O)C(F)(F)C(F)(F)C(F)(F)F.CC(C)(C)C(=O)CC(=O)C(F)(F)C(F)(F)C(F)(F)F.CC(C)(C)C(=O)CC(=O)C(F)(F)C(F)(F)C(F)(F)F.[Eu]
- T/C [3]: 99 % of control
- T/C [4]: 98 % of control
- T/C [5]: 98 % of control

Structure (SMILES): N#CSc1ccc2nc(NCO)sc2c1
- T/C [1]: 104 % of control
- T/C [2]: 101 % of control
